According to patent US20060052459A1, “Antifungal medicaments comprising arylamidine derivatives” (priority 2002, published 2006):
Read-outs that look alike come from different tables or passages of the source.

Assays:
[1] = tested on: Candida albicans strains IP 48.72 (ATCC 10231); experiment: In vitro antifungal growth inhibition on microtitre plates (optical density 590 nm), compounds alone or as mixtures (Wadley method); format: cell-based; conditions: Candida albicans, ATCC10231, 48 h, 48 hours at 30° C.; for inhibition at 0.026 µg/mL: dose 0.026 μg/ml; for inhibition at 0.098 µg/mL: dose 0.098 μg/ml; for inhibition at 0.39 µg/mL: dose 0.39 μg/ml; for inhibition at 1.562 µg/mL: dose 1.562 μg/ml; for inhibition at 6.25 µg/mL: dose 6.25 μg/ml; for inhibition at 25 µg/mL: dose 25 μg/ml; for inhibition at 100 µg/mL: dose 100 μg/ml; for EC50: read-out: EC50
Method: (§1) The following fungi were used for this study: Candida albicans strains IP 48.72 (ATCC 10231) and Aspergillus fumigatus strain IP 864.64 obtained from the Collection Nationale de Cultures de Microorganismes (CNCM) of the Institut Pasteur. The strains are cultured on Yeast Extract-Peptone-Dextrose (YEPD) agar medium comprising 0.5% yeast extract, 0.5% bactopeptone, 2% glucose and 2% agar at 30° C. and in the dark.
(§2) All these compounds were prepared in a DMSO solution at a final concentration of 100 mg/ml. The stock solutions are stored at −20° C. up to the time of use.
(§3) The trials are carried out in RPMI 1640 medium with no sodium bicarbonate, but with L-glutamine buffered with 0.165 mol per litre of 3-[N-morpholino]propanesulphonic acid (MOPS), enriched (<>) or otherwise (<>) with 2% glucose. The pH of this medium is adjusted to 7.0. The medium is sterilized by filtration (0.22 μm) and stored at 4° C. up to the time of use.
(§4) All the antifungal tests are carried out on microtitre plates. The initial suspensions of spores are prepared in a sterile solution containing 0.85% NaCl, supplemented with Tween 80 at 0.01%. These initial suspensions are then diluted in the culture medium (RPMI 1640 enriched or otherwise with 2% glucose) to a final concentration of 10^4 spores per ml. The measurements of viability of each inoculum are verified by subcultures of a volume of 300 μl on YEPD agar medium.
(§5) The antifungal compounds are tested in a range of concentrations ranging from 0.026 to 100 μg of active ingredient/ml. These antifungal compounds are then diluted in RPMI 1640 medium enriched or otherwise with 2% glucose. A final DMSO concentration of 0.2% is used throughout the measurements. Each trial is carried out on a series of dilutions of antifungal compounds, in duplicate. The antifungal dilutions (0.1 ml) and the fungal inoculum (0.1 ml) are added to each of the wells of the microtitre plate. The plates are then read with a spectrophotometer (ELX 800UV Bio-Tek Instruments, Inc) at a wavelength of 590 nm. The plates are read immediately after (t=0) and after 48 hours' incubation at 30° C. and in the dark. The optical density values obtained are correlated with fungal growth between the times t=0 and t=48 hours. The optical density values are used to calculate the percentage inhibition of growth for each concentration of antifungals by comparison with the control. The values are then used to plot a dose-response curve and the EC50 value is determined for each fungus and each compound with the aid of the Grafit 5.0® software (Erithacus software Ltd).
(§6) The method which was used to measure the type of interaction existing between the antifungal compounds in the form of mixtures is the Wadley method.
(§7) In the Wadley approach, the dose-response curve for each of the compounds A and B, and for the mixture AB, is constructed. The EC50 is calculated for each compound taken individually and for the mixture. If a and b are the absolute quantities of the compounds A and B in the mixture (a=1, b=1, a+b=2 under our conditions), the expected effective concentration (EC50exp) may be calculated in the following manner: EC50exp=(a+b)/[a/EC50A)+b/(EC50B)
(§8) The Wadley approach may be used to estimate the type of interaction existing between the fungal compounds, regardless of their concentration. Its reliability is not dependent on the percentage inhibition. The type of interaction between two compounds is given by the level of interaction (LI) which corresponds to the ratio between the expected effective concentration (EC50exp) and that observed (EC50obs) of the mixture. The nature of the interaction obtained by the Wadley formula is presented in Table 1 (see U. Gisi, Synergistic interaction in fungicide mixtures, 1996. Phytopathology 86, 1273-1279) below.
(§9) The experimental conditions are the same as previously described.

[2] = tested on: Aspergillus fumigatus strain IP 864.64; experiment: as above; format: cell-based; conditions: Aspergillus fumigatus, IP864.64, 48 h, 48 hours at 30° C.; for inhibition at 0.026 µg/mL: dose 0.026 μg/ml; for inhibition at 0.098 µg/mL: dose 0.098 μg/ml; for inhibition at 0.39 µg/mL: dose 0.39 μg/ml; for inhibition at 1.562 µg/mL: dose 1.562 μg/ml; for inhibition at 6.25 µg/mL: dose 6.25 μg/ml; for inhibition at 25 µg/mL: dose 25 μg/ml; for inhibition at 100 µg/mL: dose 100 μg/ml; for EC50: read-out: EC50
Method: as §1, §2, §3, §4, §5, §6, §7, §8, §9

[3] = minimal RPMI 1640 medium (MM), used alone
[4] = rich RPMI 1640 medium (RM), used alone

`CCC(C)n1ncn(-c2ccc(N3CCN(c4ccc(OCC5COC(Cn6cncn6)(c6ccc(Cl)cc6Cl)O5)cc4)CC3)cc2)c1=O` (stereo not shown) [Compound II.2, itraconazole] gave an inhibition at 0.026 µg/mL ([1]; minimal RPMI 1640 medium (MM)) of 58.1%, an inhibition at 0.026 µg/mL ([1]; rich RPMI 1640 medium (RM)) of 44.7% and an inhibition at 0.098 µg/mL ([1]; minimal RPMI 1640 medium (MM)) of 75.4%. The inhibition at 0.098 µg/mL ([1]; rich RPMI 1640 medium (RM)) was 85.1%, the inhibition at 0.39 µg/mL ([1]; minimal RPMI 1640 medium (MM)) was 78.2% and the inhibition at 0.39 µg/mL ([1]; rich RPMI 1640 medium (RM)) was 86.2%. It also gave an inhibition at 1.562 µg/mL ([1]; minimal RPMI 1640 medium (MM)) of 74.6%, an inhibition at 1.562 µg/mL ([1]; rich RPMI 1640 medium (RM)) of 85.1% and an inhibition at 6.25 µg/mL ([1]; minimal RPMI 1640 medium (MM)) of 78.6%. It also gave an inhibition at 6.25 µg/mL ([1]; rich RPMI 1640 medium (RM)) of 86.2%, an inhibition at 25 µg/mL ([1]; minimal RPMI 1640 medium (MM)) of 87.9% and an inhibition at 25 µg/mL ([1]; rich RPMI 1640 medium (RM)) of 95.2%. For the same molecule, the inhibition at 100 µg/mL ([1]; minimal RPMI 1640 medium (MM)) was 95.2%, the inhibition at 100 µg/mL ([1]; rich RPMI 1640 medium (RM)) was 95.2% and the EC50 [1, 3] was 0.022 µg/mL. The EC50 [1, 4] was 0.017 µg/mL, the EC50 ([1]; second study, strain IP 48.72, RPMI 1640 medium enriched with 2% glucose) was 0.082 µg/mL and the inhibition at 0.026 µg/mL ([2]; minimal RPMI 1640 medium (MM)) was 2.2%. For the same molecule, the inhibition at 0.026 µg/mL ([2]; rich RPMI 1640 medium (RM)) was 18.6%, the inhibition at 0.098 µg/mL ([2]; minimal RPMI 1640 medium (MM)) was 31.8% and the inhibition at 0.098 µg/mL ([2]; rich RPMI 1640 medium (RM)) was 47.5%. For the same molecule, the inhibition at 0.39 µg/mL ([2]; minimal RPMI 1640 medium (MM)) was 49.3%, the inhibition at 0.39 µg/mL ([2]; rich RPMI 1640 medium (RM)) was 88.6% and the inhibition at 1.562 µg/mL ([2]; minimal RPMI 1640 medium (MM)) was 99.6%. The inhibition at 1.562 µg/mL ([2]; rich RPMI 1640 medium (RM)) was 99.2%, the inhibition at 6.25 µg/mL ([2]; minimal RPMI 1640 medium (MM)) was 100% and the inhibition at 6.25 µg/mL ([2]; rich RPMI 1640 medium (RM)) was 100%. It also gave an inhibition at 25 µg/mL ([2]; minimal RPMI 1640 medium (MM)) of 100%, an inhibition at 25 µg/mL ([2]; rich RPMI 1640 medium (RM)) of 100% and an inhibition at 100 µg/mL ([2]; minimal RPMI 1640 medium (MM)) of 99%. It also gave an inhibition at 100 µg/mL ([2]; rich RPMI 1640 medium (RM)) of 100%, an EC50 [2, 3] of 0.27 µg/mL and an EC50 [2, 4] of 0.27 µg/mL. For the same molecule, the EC50 ([2]; second study, strain IP 864.64, RPMI 1640 medium enriched with 2% glucose) was 0.187 µg/mL.
